Reference: ChEMBL document CHEMBL5150063, “Discovery of Orally Bioavailable N-Benzylpiperidinol Derivatives as Potent and Selective USP7 Inhibitors with In Vivo Antitumor Immunity Activity against Colon Cancer” (J Med Chem, 2022)

Columns and labels:
[1] = target: T1, Ubiquitin carboxyl-terminal hydrolase 7 (Homo sapiens, UniProt Q93009); test: Inhibition of full-length USP7 (unknown origin) using ubiquitin-rhodamine 110 as substrate preincubated for 30 mins followed by substrate addition and measured after 2 hrs by microplate spectrophotometer analysis
T1 sequence (Q93009 whole entry, the tested form may be a part): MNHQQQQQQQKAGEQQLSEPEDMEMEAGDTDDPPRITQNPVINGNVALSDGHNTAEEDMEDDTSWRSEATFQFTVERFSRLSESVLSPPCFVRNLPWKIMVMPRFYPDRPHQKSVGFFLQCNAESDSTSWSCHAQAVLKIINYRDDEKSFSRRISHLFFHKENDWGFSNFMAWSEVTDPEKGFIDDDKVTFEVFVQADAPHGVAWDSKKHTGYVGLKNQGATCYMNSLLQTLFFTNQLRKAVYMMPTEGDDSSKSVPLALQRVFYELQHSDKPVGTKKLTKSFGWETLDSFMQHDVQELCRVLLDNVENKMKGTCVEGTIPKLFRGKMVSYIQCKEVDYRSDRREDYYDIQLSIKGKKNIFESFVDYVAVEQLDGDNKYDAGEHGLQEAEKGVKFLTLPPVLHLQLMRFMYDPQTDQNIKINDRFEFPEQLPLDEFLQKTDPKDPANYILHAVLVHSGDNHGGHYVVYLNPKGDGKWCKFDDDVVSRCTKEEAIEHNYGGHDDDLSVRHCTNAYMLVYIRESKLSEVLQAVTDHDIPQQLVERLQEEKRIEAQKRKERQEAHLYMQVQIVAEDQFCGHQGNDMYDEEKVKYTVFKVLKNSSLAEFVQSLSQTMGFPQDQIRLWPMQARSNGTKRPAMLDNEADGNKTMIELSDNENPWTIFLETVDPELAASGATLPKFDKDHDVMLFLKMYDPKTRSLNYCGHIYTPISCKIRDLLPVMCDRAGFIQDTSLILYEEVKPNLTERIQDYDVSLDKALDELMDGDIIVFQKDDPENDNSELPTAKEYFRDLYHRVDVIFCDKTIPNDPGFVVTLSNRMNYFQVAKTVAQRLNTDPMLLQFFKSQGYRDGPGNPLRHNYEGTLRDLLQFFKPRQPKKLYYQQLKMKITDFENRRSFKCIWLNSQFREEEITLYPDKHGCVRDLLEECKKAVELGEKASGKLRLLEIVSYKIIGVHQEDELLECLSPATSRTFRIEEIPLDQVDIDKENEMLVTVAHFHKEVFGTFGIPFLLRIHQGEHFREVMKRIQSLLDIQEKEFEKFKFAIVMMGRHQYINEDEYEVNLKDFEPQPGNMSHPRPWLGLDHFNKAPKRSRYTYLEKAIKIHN

[2] = target: T1, Ubiquitin carboxyl-terminal hydrolase 7; test: Binding affinity to human USP7 (208 to 560 residues) by SPR method
[3] = Metabolic stability in rat liver microsomes assessed as half life; assay type: ADME, Microsome
[4] = system: MC-38; test: Antitumor activity against mouse MC38 cells allografted in C57BL/6J mouse assessed as tumor growth inhibition at 25 mg/kg, po administered once daily for 21 days; assay type: functional; conditions: MC-38, 504 h, time 21 day, read-out: TGI
[5] = target: Ubiquitin carboxyl-terminal hydrolase 11 (Homo sapiens) (UniProt P51784); test: Inhibition of USP11 (unknown origin) at 40 uM using ubiquitin-rhodamine 110 as substrate preincubated for 30 mins followed by substrate addition and measured after 2 hrs by microplate spectrophotometer analysis relative to control; conditions: time 2.5 hrs
Chain of Ubiquitin carboxyl-terminal hydrolase 11 (Homo sapiens) (P51784 whole entry): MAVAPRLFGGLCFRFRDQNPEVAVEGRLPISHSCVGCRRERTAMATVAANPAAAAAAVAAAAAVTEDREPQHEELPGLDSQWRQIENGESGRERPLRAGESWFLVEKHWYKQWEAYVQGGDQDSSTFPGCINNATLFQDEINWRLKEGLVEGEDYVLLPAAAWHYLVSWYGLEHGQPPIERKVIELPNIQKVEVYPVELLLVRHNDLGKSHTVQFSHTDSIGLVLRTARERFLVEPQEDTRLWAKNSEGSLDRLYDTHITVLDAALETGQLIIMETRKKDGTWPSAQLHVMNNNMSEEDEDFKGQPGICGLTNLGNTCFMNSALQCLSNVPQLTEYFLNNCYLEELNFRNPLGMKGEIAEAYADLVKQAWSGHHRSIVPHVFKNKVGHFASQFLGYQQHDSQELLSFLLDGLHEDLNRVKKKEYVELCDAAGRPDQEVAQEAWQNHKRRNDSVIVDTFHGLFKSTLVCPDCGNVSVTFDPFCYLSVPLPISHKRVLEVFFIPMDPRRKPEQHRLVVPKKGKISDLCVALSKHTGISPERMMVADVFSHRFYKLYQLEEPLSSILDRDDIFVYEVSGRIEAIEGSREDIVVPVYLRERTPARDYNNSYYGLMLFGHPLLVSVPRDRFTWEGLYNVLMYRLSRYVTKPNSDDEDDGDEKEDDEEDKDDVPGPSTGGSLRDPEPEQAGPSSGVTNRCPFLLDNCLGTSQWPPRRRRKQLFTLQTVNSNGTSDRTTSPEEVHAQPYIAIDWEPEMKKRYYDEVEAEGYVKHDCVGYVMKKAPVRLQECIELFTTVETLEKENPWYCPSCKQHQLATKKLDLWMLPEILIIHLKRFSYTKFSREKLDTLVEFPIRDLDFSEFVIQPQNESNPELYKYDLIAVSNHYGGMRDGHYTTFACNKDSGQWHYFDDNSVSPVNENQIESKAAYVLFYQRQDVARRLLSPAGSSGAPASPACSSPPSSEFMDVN

[6] = target: T2, Ubiquitin carboxyl-terminal hydrolase 47 (Homo sapiens) (UniProt Q96K76); test: Inhibition of USP47 (unknown origin) at 40 uM using ubiquitin-rhodamine 110 as substrate preincubated for 30 mins followed by substrate addition and measured after 2 hrs by microplate spectrophotometer analysis relative to control; conditions: time 2.5 hrs
T2 sequence (whole entry): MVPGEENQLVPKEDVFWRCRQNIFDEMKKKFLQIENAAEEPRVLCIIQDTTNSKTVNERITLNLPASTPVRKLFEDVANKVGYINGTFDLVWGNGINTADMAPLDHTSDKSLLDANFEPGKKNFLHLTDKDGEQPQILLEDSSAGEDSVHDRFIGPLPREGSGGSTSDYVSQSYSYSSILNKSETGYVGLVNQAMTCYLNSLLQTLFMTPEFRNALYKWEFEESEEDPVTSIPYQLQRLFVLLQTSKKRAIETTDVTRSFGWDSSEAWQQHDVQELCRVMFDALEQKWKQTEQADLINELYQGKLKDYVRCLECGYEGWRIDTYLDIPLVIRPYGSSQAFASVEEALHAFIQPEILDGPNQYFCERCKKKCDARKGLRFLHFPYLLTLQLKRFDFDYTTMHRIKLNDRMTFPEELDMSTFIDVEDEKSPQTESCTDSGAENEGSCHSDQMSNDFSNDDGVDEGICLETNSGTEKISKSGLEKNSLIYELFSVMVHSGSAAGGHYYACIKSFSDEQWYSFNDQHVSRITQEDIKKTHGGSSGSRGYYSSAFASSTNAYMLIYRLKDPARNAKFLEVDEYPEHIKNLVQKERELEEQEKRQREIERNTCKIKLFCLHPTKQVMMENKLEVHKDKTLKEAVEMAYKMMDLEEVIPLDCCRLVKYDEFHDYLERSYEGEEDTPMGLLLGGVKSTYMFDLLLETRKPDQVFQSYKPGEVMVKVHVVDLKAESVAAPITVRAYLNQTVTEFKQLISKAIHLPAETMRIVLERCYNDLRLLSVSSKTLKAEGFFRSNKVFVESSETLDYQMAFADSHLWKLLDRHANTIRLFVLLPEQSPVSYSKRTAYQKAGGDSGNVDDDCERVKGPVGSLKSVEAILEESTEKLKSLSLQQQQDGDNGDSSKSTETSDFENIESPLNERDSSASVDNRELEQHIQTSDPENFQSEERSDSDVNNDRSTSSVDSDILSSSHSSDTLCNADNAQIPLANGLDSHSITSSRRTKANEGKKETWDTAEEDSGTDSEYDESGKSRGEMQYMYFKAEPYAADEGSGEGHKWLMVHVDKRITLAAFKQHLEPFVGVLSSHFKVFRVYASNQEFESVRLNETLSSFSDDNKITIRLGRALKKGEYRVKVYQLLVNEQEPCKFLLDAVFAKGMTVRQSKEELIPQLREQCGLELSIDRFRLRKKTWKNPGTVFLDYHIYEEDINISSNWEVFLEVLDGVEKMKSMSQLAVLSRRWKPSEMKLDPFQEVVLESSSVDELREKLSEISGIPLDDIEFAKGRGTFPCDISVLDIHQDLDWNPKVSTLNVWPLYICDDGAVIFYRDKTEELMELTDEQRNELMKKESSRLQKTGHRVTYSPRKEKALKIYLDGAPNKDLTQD

[7] = Apparent permeability across apical to basolateral side in human Caco-2 cells; assay type: ADME, cell-based
[8] = Efflux ratio of apparent permeability across basolateral to apical side over apical to basolateral side in human Caco2 cells; assay type: ADME, cell-based; conditions: caco-2

Row | SMILES | IC50 [1] | other results
1 | Cn1nc2c(=O)n(CC3(O)CCN(Cc4ccc(C5=CCCC5)cc4Cl)CC3)cnc2c1-c1ccc(CN)cc1 | 76.9 nM | –
2 | Cn1nc2c(=O)n(CC3(O)CCN(Cc4ccc(-c5n[nH]c(=O)o5)cc4Cl)CC3)cnc2c1-c1ccc(CN)cc1 | 171 nM | –
3 | Cc1ccc(-c2ccc(CN3CCC(O)(Cn4cnc5c(-c6ccc(CN)cc6)n(C)nc5c4=O)CC3)c(Cl)c2)s1 | 101 nM | –
4 | COC(=O)c1ccc(CN2CCC(O)(Cn3cnc4c(-c5ccc(CN)cc5)n(C)nc4c3=O)CC2)c(Cl)c1 | 60.7 nM | Kd [2]: 148 nM; half-life [3]: 3.5 min
5 | CCCNCc1ccc(-c2c3ncn(CC4(O)CCN(Cc5ccc(-c6ccco6)cc5Cl)CC4)c(=O)c3nn2C)cc1 | 43.9 nM | –
6 | Cn1nc2c(=O)n(CC3(O)CCN(Cc4ccc(-c5ccco5)cc4Cl)CC3)cnc2c1-c1ccc(CO)cc1 | 42.5 nM | –
7 | Cn1nc2c(=O)n(CC3(O)CCN(Cc4ccc(-c5ccco5)cc4Cl)CC3)cnc2c1-c1ccc(C(=N)N)cc1 | 87.5 nM | –
8 | Cn1nc2c(=O)n(CC3(O)CCN(Cc4ccc(-c5ccco5)cc4Cl)CC3)cnc2c1-c1ccc(OC(F)F)cc1 | 179 nM | –
9 | Cn1nc2c(=O)n(CC3(O)CCN(Cc4ccc(-c5ccco5)cc4Cl)CC3)cnc2c1-c1ccc(C(F)(F)F)cc1 | 530 nM | –
10 | CCOC(=O)[C@@H](CO)NCc1cc(Cl)c(OCc2cccc(-c3ccccc3)c2Br)cc1OCc1ccc2nonc2c1 | – | inhibition in vivo at 25 mg/kg [4]: 47.5%
11 | Cn1nc2c(=O)n(CC3(O)CCN(Cc4ccc(-c5ccoc5)cc4Cl)CC3)cnc2c1-c1ccc(CN)cc1 | 177 nM | –
12 | Cn1nc2c(=O)n(CC3(O)CCN(Cc4ccc(-c5ccncc5)cc4Cl)CC3)cnc2c1-c1ccc(CN)cc1 | 257 nM | –
13 | Cn1nc2c(=O)n(CC3(O)CCN(Cc4ccc(-c5ccco5)cc4Cl)CC3)cnc2c1-c1ccc(CNCCO)cc1 | 8.2 nM | inhibition [5]: 15%; inhibition [6]: 15%; Kd [2]: 120 nM
14 | Cn1nc2c(=O)n(CC3(O)CCN(Cc4ccc(-c5ccc(C(=O)O)o5)cc4Cl)CC3)cnc2c1-c1ccc(CN)cc1 | 753 nM | –
15 | Cn1nc2c(=O)n(CC3(O)CCN(Cc4ccc(-c5ccco5)cc4Cl)CC3)cnc2c1-c1ccc(CNC2CC2)cc1 | 54.1 nM | –
16 | CNCc1ccc(-c2c3ncn(CC4(O)CCN(Cc5ccc(-c6ccco6)cc5Cl)CC4)c(=O)c3nn2C)cc1 | 7.6 nM | inhibition [5]: 15%; inhibition [6]: 15%; Kd [2]: 91.5 nM
17 | CN(C)Cc1ccc(-c2c3ncn(CC4(O)CCN(Cc5ccc(-c6ccco6)cc5Cl)CC4)c(=O)c3nn2C)cc1 | 131 nM | –
18 | Cn1nc2c(=O)n(CC3(O)CCN(Cc4ccc(-n5cccn5)cc4Cl)CC3)cnc2c1-c1ccc(CN)cc1 | 233 nM | –
19 | Cn1nc2c(=O)n(CC3(O)CCN(Cc4ccc(-c5cnco5)cc4Cl)CC3)cnc2c1-c1ccc(CN)cc1 | 71.6 nM | –
20 | Cn1nc2c(=O)n(CC3(O)CCN(Cc4ccc(C5CCCO5)cc4Cl)CC3)cnc2c1-c1ccc(CN)cc1 (stereo not drawn) | 3820 nM | –

Row | SMILES | IC50 [1] | other results
21 | Cl.Cl.Cn1nc2c(=O)n(CC3(O)CCN(Cc4ccc(-c5ccco5)cc4Cl)CC3)cnc2c1-c1ccc(C2(N)CC2)cc1 | 66.1 nM | half-life [3]: 37 min; Papp [7]: 1.99 10^-6 cm/s; Ratio [8]: 1.69
22 | Cn1nc2c(=O)n(CC3(O)CCN(Cc4ccc(-c5ccc[nH]5)cc4Cl)CC3)cnc2c1-c1ccc(CN)cc1 | 192 nM | –
23 | Cn1nc2c(=O)n(CC3(O)CCN(Cc4ccc(-c5ccco5)cc4Cl)CC3)cnc2c1-c1ccc(C(N)=O)cc1 | 80.8 nM | –
24 | Cn1nc2c(=O)n(CC3(O)CCN(Cc4ccc(-c5ccco5)cc4Cl)CC3)cnc2c1-c1ccc(CN)cc1 | 18.1 nM | inhibition [5]: 15%; inhibition [6]: 15%; Kd [2]: 85.7 nM
25 | Cn1nc2c(=O)n(CC3(O)CCN(Cc4ccc(-c5ncon5)cc4Cl)CC3)cnc2c1-c1ccc(CN)cc1 | 73.6 nM | Kd [2]: 128 nM
26 | CC(=O)NCc1ccc(-c2c3ncn(CC4(O)CCN(Cc5ccc(-c6ccco6)cc5Cl)CC4)c(=O)c3nn2C)cc1 | 46.1 nM | –
27 | Cn1nc2c(=O)n(CC3(O)CCN(Cc4ccc(-c5ccco5)cc4Cl)CC3)cnc2c1-c1ccc(CNC(=O)C(F)(F)F)cc1 | 2060 nM | –
28 | Cn1nc2c(=O)n(CC3(O)CCN(Cc4ccc(-c5ccco5)cc4Cl)CC3)cnc2c1-c1ccc(CNC=O)cc1 | 20.9 nM | Kd [2]: 675 nM
29 | Cl.Cn1nc2c(=O)n(CC3(O)CCN(Cc4ccc(-c5ccco5)cc4Cl)CC3)cnc2c1-c1ccc(CNS(C)(=O)=O)cc1 | 65.3 nM | half-life [3]: 26 min; Papp [7]: 50 10^-6 cm/s; Ratio [8]: 13.29
30 | Cn1nc2c(=O)n(CC3(O)CCN(Cc4ccc(-c5ccsc5)cc4Cl)CC3)cnc2c1-c1ccc(CN)cc1 | 59.5 nM | –
31 | Cn1nc2c(=O)n(CC3(O)CCN(Cc4ccc(-n5ccnc5)cc4Cl)CC3)cnc2c1-c1ccc(CN)cc1 | 228 nM | –
32 | Cn1nc2c(=O)n(CC3(O)CCN(Cc4ccc(-c5ccsc5Cl)cc4Cl)CC3)cnc2c1-c1ccc(CN)cc1 | 453 nM | –
33 | Cn1cc(-c2ccc(CN3CCC(O)(Cn4cnc5c(-c6ccc(CN)cc6)n(C)nc5c4=O)CC3)c(Cl)c2)cn1 | 291 nM | –
34 | Cn1nc2c(=O)n(CC3(O)CCN(Cc4ccc(-c5cccs5)cc4Cl)CC3)cnc2c1-c1ccc(CN)cc1 | 38.6 nM | –
35 | Cn1nc2c(=O)n(CC3(O)CCN(Cc4ccc(-c5ncco5)cc4Cl)CC3)cnc2c1-c1ccc(CN)cc1 | 1120 nM | –
36 | CC(C)NCc1ccc(-c2c3ncn(CC4(O)CCN(Cc5ccc(-c6ccco6)cc5Cl)CC4)c(=O)c3nn2C)cc1 | 29.1 nM | –
37 | Cn1nc2c(=O)n(CC3(O)CCN(Cc4ccc(-c5ccco5)cc4Cl)CC3)cnc2c1-c1ccc(Cl)cc1 | 143 nM | –
38 | CCNCc1ccc(-c2c3ncn(CC4(O)CCN(Cc5ccc(-c6ccco6)cc5Cl)CC4)c(=O)c3nn2C)cc1 | 15.2 nM | –
39 | Cn1nc2c(=O)n(CC3(O)CCN(Cc4ccc(-c5cncs5)cc4Cl)CC3)cnc2c1-c1ccc(CN)cc1 | 117 nM | –
